Numbers after ± are expanded uncertainties.
Assays:
[1] = 101 kPa, Liquid; for viscosity: Capillary tube (Ostwald / Ubbelohde) method
[2] = xn = mol fraction of the nth substance listed; settings: 101 kPa, Liquid; for viscosity: Capillary tube (Ostwald / Ubbelohde) method

C=C(C)C(=O)O [2-methyl-2-propenoic acid]
[1]
Settings	mass density [kg/m3]	viscosity [mPa·s]
298.15 K	1009.5 ± 2.2	1.267 ± 0.027
308.15 K	999.4 ± 2.2	1.078 ± 0.023
318.15 K	989.2 ± 2.2	0.945 ± 0.02

C=C(C)C(=O)OCCO [2-hydroxyethyl 2-methyl-2-propenoate] + CCOC(=O)C(C)O
[2]
Settings	mass density, 298.15 K [kg/m3]	mass density, 308.15 K [kg/m3]	mass density, 318.15 K [kg/m3]	viscosity, 298.15 K [mPa·s]	viscosity, 308.15 K [mPa·s]	viscosity, 318.15 K [mPa·s]
x2 = 0	1067.1 ± 2.6	1057.7 ± 2.6	1048.6 ± 2.6	5.784 ± 0.13	4.194 ± 0.096	3.181 ± 0.073
x2 = 0.1	1063.9 ± 2.5	1054.7 ± 2.5	1045.6 ± 2.5	5.23 ± 0.12	3.833 ± 0.087	2.938 ± 0.067
x2 = 0.2	1060.6 ± 2.5	1051.4 ± 2.5	1042.2 ± 2.5	4.75 ± 0.11	3.513 ± 0.079	2.71 ± 0.061
x2 = 0.3	1057.1 ± 2.5	1047.9 ± 2.5	1038.5 ± 2.5	4.36 ± 0.097	3.215 ± 0.072	2.493 ± 0.056
x2 = 0.4	1053.5 ± 2.4	1044.3 ± 2.4	1034.6 ± 2.4	3.989 ± 0.088	2.975 ± 0.066	2.311 ± 0.051
x2 = 0.5	1049.8 ± 2.4	1040.4 ± 2.4	1030.6 ± 2.4	3.663 ± 0.08	2.742 ± 0.06	2.141 ± 0.047
x2 = 0.6	1045.9 ± 2.4	1036.4 ± 2.4	1026.4 ± 2.4	3.343 ± 0.073	2.526 ± 0.055	1.985 ± 0.043
x2 = 0.7	1041.8 ± 2.3	1032.2 ± 2.3	1022 ± 2.3	3.041 ± 0.066	2.323 ± 0.05	1.834 ± 0.04
x2 = 0.8	1037.7 ± 2.3	1027.9 ± 2.3	1017.5 ± 2.3	2.767 ± 0.06	2.127 ± 0.046	1.689 ± 0.036
x2 = 0.9	1033.4 ± 2.3	1023.4 ± 2.3	1012.8 ± 2.3	2.524 ± 0.054	1.949 ± 0.042	1.556 ± 0.033

C=C(C)C(=O)O [2-methyl-2-propenoic acid] + CCOC(=O)C(C)O
[2]
Settings	mass density, 298.15 K [kg/m3]	mass density, 308.15 K [kg/m3]	mass density, 318.15 K [kg/m3]	viscosity, 298.15 K [mPa·s]	viscosity, 308.15 K [mPa·s]	viscosity, 318.15 K [mPa·s]
x2 = 0	1009.5 ± 2.2	999.4 ± 2.2	989.2 ± 2.2	1.267 ± 0.027	1.078 ± 0.023	0.945 ± 0.02
x2 = 0.1	1012.1 ± 2.2	1002 ± 2.2	991.7 ± 2.2	1.422 ± 0.03	1.19 ± 0.025	1.02 ± 0.022
x2 = 0.2	1014.6 ± 2.2	1004.6 ± 2.2	994.5 ± 2.2	1.66 ± 0.035	1.368 ± 0.029	1.154 ± 0.025
x2 = 0.3	1017 ± 2.2	1007.4 ± 2.2	997.3 ± 2.2	1.933 ± 0.041	1.567 ± 0.033	1.306 ± 0.028
x2 = 0.3999	1019.8 ± 2.2	1010.2 ± 2.2	999.9 ± 2.2	2.181 ± 0.046	1.742 ± 0.037	1.43 ± 0.03
x2 = 0.5	1022.5 ± 2.3	1012.7 ± 2.3	1002.2 ± 2.3	2.378 ± 0.051	1.87 ± 0.04	1.52 ± 0.032
x2 = 0.6	1024.7 ± 2.3	1014.8 ± 2.3	1004.2 ± 2.3	2.465 ± 0.052	1.929 ± 0.041	1.551 ± 0.033
x2 = 0.6999	1026.5 ± 2.3	1016.5 ± 2.3	1005.8 ± 2.3	2.532 ± 0.054	1.967 ± 0.042	1.579 ± 0.034
x2 = 0.8	1027.9 ± 2.3	1017.8 ± 2.3	1007.2 ± 2.3	2.539 ± 0.054	1.962 ± 0.042	1.567 ± 0.033
x2 = 0.9001	1028.7 ± 2.3	1018.6 ± 2.3	1008.2 ± 2.3	2.471 ± 0.053	1.907 ± 0.041	1.526 ± 0.033

C=C(C)C(=O)OCc1ccccc1 [benzyl methacrylate]
[1]
Settings	mass density [kg/m3]	viscosity [mPa·s]
298.15 K	1034.7 ± 2.5	2.302 ± 0.053
308.15 K	1025.8 ± 2.5	1.885 ± 0.043
318.15 K	1017 ± 2.5	1.58 ± 0.036

C=C(C)C(=O)OCc1ccccc1 [benzyl methacrylate] + CCOC(=O)C(C)O
[2]
Settings	mass density, 298.15 K [kg/m3]	mass density, 308.15 K [kg/m3]	mass density, 318.15 K [kg/m3]	viscosity, 298.15 K [mPa·s]	viscosity, 308.15 K [mPa·s]	viscosity, 318.15 K [mPa·s]
x2 = 0	1034.7 ± 2.5	1025.8 ± 2.5	1017 ± 2.5	2.302 ± 0.053	1.885 ± 0.043	1.58 ± 0.036
x2 = 0.1	1033.7 ± 2.5	1024.3 ± 2.5	1015.1 ± 2.5	2.219 ± 0.05	1.832 ± 0.042	1.53 ± 0.035
x2 = 0.1999	1032.7 ± 2.4	1023.3 ± 2.4	1013.9 ± 2.4	2.166 ± 0.049	1.8 ± 0.041	1.493 ± 0.034
x2 = 0.3	1032.1 ± 2.4	1022.6 ± 2.4	1012.9 ± 2.4	2.153 ± 0.048	1.77 ± 0.04	1.458 ± 0.033
x2 = 0.4	1031.6 ± 2.4	1021.9 ± 2.4	1012.1 ± 2.4	2.149 ± 0.048	1.753 ± 0.039	1.437 ± 0.032
x2 = 0.5	1031.1 ± 2.4	1021.2 ± 2.4	1011.2 ± 2.3	2.161 ± 0.048	1.749 ± 0.039	1.426 ± 0.031
x2 = 0.6	1030.7 ± 2.3	1020.6 ± 2.3	1010.4 ± 2.3	2.179 ± 0.048	1.753 ± 0.038	1.426 ± 0.031
x2 = 0.7	1030.2 ± 2.3	1020 ± 2.3	1009.5 ± 2.3	2.209 ± 0.048	1.761 ± 0.038	1.431 ± 0.031
x2 = 0.7999	1029.8 ± 2.3	1019.4 ± 2.3	1008.7 ± 2.3	2.25 ± 0.048	1.782 ± 0.038	1.447 ± 0.031
x2 = 0.9	1029.4 ± 2.3	1018.9 ± 2.3	1008 ± 2.3	2.303 ± 0.049	1.807 ± 0.039	1.464 ± 0.031

CCOC(=O)C(C)O (racemic) [DL-ethyl lactate]
[1]
Settings	mass density [kg/m3]	viscosity [mPa·s]
298.15 K	1029.1 ± 2.3	2.398 ± 0.051
308.15 K	1018.7 ± 2.3	1.863 ± 0.04
318.15 K	1007.5 ± 2.3	1.494 ± 0.032

C=C(C)C(=O)OCCO [2-hydroxyethyl 2-methyl-2-propenoate]
[1]
Settings	mass density [kg/m3]	viscosity [mPa·s]
298.15 K	1067.1 ± 2.6	5.784 ± 0.13
308.15 K	1057.7 ± 2.6	4.194 ± 0.096
318.15 K	1048.6 ± 2.6	3.181 ± 0.073

CCOC(=O)C(C)O (stereo not drawn) [DL-ethyl lactate] + C=C(C)C(=O)OCCO
[2], x1 = 1
Settings	mass density [kg/m3]	viscosity [mPa·s]
298.15 K	1029.1 ± 2.3	2.398 ± 0.051
308.15 K	1018.7 ± 2.3	1.863 ± 0.04
318.15 K	1007.5 ± 2.3	1.494 ± 0.032

CCOC(=O)C(C)O (stereo not drawn) [DL-ethyl lactate] + C=C(C)C(=O)O
[2], x1 = 1
Settings	mass density [kg/m3]	viscosity [mPa·s]
298.15 K	1029.1 ± 2.3	2.398 ± 0.051
308.15 K	1018.7 ± 2.3	1.863 ± 0.04
318.15 K	1007.5 ± 2.3	1.494 ± 0.032

CCOC(=O)C(C)O (stereo not drawn) [DL-ethyl lactate] + C=C(C)C(=O)OCc1ccccc1
[2], x1 = 1
Settings	mass density [kg/m3]	viscosity [mPa·s]
298.15 K	1029.1 ± 2.3	2.398 ± 0.051
308.15 K	1018.7 ± 2.3	1.863 ± 0.04
318.15 K	1007.5 ± 2.3	1.494 ± 0.032

Reference: the NIST ThermoML archive (doi:10.1021/je600568w)
